Reference: patent US6387955B1, “Enhanced anti-angiogenic activity of permanently charged derivatives of steroid hormones” (Pharmos Corporation, priority 1997, dated 2002)

Assays:
MCF-7 tumors [1] = assay: Growth of MCF-7 tumors implanted in ventral fat pad of nude mice, tumor size by MRI; assay type: in vivo; settings: for change in tumor size relative to day 0 (in words): slow-release pellet s.c. in flank, 25 day time course, MRI
Procedure: (§1) Female CD1-nu/nu athymic mice (6 weeks old) were obtained from the Weizmann Institute Department of Animal Services. MCF-7 cells, serially passed as described above, were detached from the culturing flasks with 0.03% EDTA in phosphate buffered saline (PBS) and washed several times in normal saline. Cells (10^7/innoculum) were then injected into the ventral fat pad at the level of the breast. Coincident with cell introduction, a slow-release pellet of estradiol (0.72 mg/pellet, 45-day release profile; Innovative Research, Sarasota, Fla.) was implanted subcutaneously in the flank of the animal. Mice were anesthetized with ketamine/Rompun (i.p.) for the surgical procedures. […] At this point, animals were randomized into four study groups. In the first, the estrogen pellet was removed and replaced with a slow-release TMI-laden pellet (6.3 mg, 45-day release) (n=5). In the second group, the estrogen pellet was removed and replaced with a tamoxifen pellet (n=7). The third group was treated with a blank (placebo) pellet (n=5), while the fourth group was reimplanted with an estradiol pellet (n=4). TMI and placebo-treated animals were imaged (under ketamine/Rompun anesthesia) either immediately before pellet exchange (day 0) or at day 3, 6, 12 and 25 after pellet exchange.
MRI images were recorded with a Bruker 4.7 (tesla)/30 Biospec spectrometer (Bruker Medizintechnik, Rheinstetten, Germany). 1H Spin-echo images were recorded at 200.12 MHz using a custom-made 4.5 cm rf coil with an image data matrix of 256×128 pixels. Pilot scans of the tumors were completed using a fast transverse multi-slice spin-echo sequence (giving T1-weighted spectra; inter-echo time (TE)=16 msec, recovery time (TR)=500 msec) followed by T2-weighted sequences in which axial slices perpendicular to the spine (i.e., a coronal orientation) were recorded. In the latter case, spin-echo images were obtained using a 4 cm field of view, 1 mm slice thickness, 1.2 mm slice-to-slice distance and a four-sequence average. The TE and TR were optimized to provide the best image contrast generating values of 80 and 3200 msec, respectively. This gave a total imaging time of approximately 30 min. […] Tumor size was calculated using a slice-to-slice reconstruction in which the slice surface area was obtained from histograms provided by the resident Bruker software package using the following relationship: […]
where XSA is the cross-sectional area of an internal slice, ES is the cross-sectional area of an edge slice, l is the slice thickness and ssd is the distance from the middle of one slice to the middle of the next. For image analysis, the average pixel intensity of viable portions of MCF-7 tumors was determined from a central tumor slice using histograms generated by the dedicated Bruker software package. […]

[2] = tested on: MCF-7 human breast cancer; settings: MCF-7 human breast cancer implanted in nude mice; cited from earlier work
[3] = tested on: gelatinase A (MMP-2), 72 kDa; assay: Collagenolytic activity by zymography in human fibrosarcoma cell supernatant, gelatinase A; assay type: cell-based
Procedure: (§2) HT-1080 cells (CCL 121), derived from a metastatic lesion of a human fibrosarcoma and primary bovine endothelial cells were obtained from the American Type Culture collection (Rockville, Md.). Cells were maintained under an atmosphere of 5% CO2, in Dulbecco's Minimal Essential Medium (DMEM) supplemented with 10% fetal calf serum, glutamine, vitamins, non-essential amino acids and antibiotics (Biological Industries, Kibbutz Beth HaEmek, Israel).
(§3) Sub-confluent cell cultures were incubated for 6 to 24 hours in serum-free DMEM, either with or without various concentrations of TMI or tamoxifen, and the resultant supernatant was analyzed for collagenolytic activity. The collagenolytic activity was determined using a gelatin-impregnated (1 mg/ml, Difco, Detroit Mich.) SDS-PAGE 8% gel, as previously described, with minor modifications. Briefly, the culture media samples were separated on the substrate-impregnated gels under non-reducing conditions, followed by 30 min of incubation of 2.5% Triton X-100 (BDH, UK). The gels were then incubated for 16 hours at 37° C. in 50 mM TRIS, 0.2 M NaCl, 5 mM CaCl2, 0.02% BRIJ 35 (w/v) at pH 7.6. […] The intensity of the stained bands was then determined using a computerized densitometer (Molecular Dynamics Model 300A). […]

[4] = tested on: gelatinase B (MMP-9), 92 kDa; assay: Collagenolytic activity by zymography in human fibrosarcoma cell supernatant, gelatinase B; assay type: cell-based
Procedure: as §2, §3

MCF-7 tumors [5] = assay: Tumor necrosis in MCF-7 tumors by T2-weighted MRI; assay type: in vivo, nude mice
Procedure: as §1
MRI images were recorded with a Bruker 4.7 (tesla)/30 Biospec spectrometer (Bruker Medizintechnik, Rheinstetten, Germany). 1H Spin-echo images were recorded at 200.12 MHz using a custom-made 4.5 cm rf coil with an image data matrix of 256×128 pixels. Pilot scans of the tumors were completed using a fast transverse multi-slice spin-echo sequence (giving T1-weighted spectra; inter-echo time (TE)=16 msec, recovery time (TR)=500 msec) followed by T2-weighted sequences in which axial slices perpendicular to the spine (i.e., a coronal orientation) were recorded. In the latter case, spin-echo images were obtained using a 4 cm field of view, 1 mm slice thickness, 1.2 mm slice-to-slice distance and a four-sequence average. The TE and TR were optimized to provide the best image contrast generating values of 80 and 3200 msec, respectively. This gave a total imaging time of approximately 30 min. Under the conditions reported, the in-plane resolution was 155×310 μm. Tumor size was calculated using a slice-to-slice reconstruction in which the slice surface area was obtained from histograms provided by the resident Bruker software package using the following relationship:
where XSA is the cross-sectional area of an internal slice, ES is the cross-sectional area of an edge slice, l is the slice thickness and ssd is the distance from the middle of one slice to the middle of the next. For image analysis, the average pixel intensity of viable portions of MCF-7 tumors was determined from a central tumor slice using histograms generated by the dedicated Bruker software package. […] Fibrosis was defined as those areas manifesting a decrease in pixel intensity of […].
In vivo tumor histology was assessed for TMI and placebo-treated tumors using T2-weighted MR images. […] At this time, the area of necrosis was two-fold higher than that observed on day 0 (increasing from an average of 20% to approximately 40%).

Tolerability in mice = assay type: in vivo
MCF-7 tumor = assay: TBB in the MCF-7 model, daily dosing (preliminary data); assay type: in vivo, mice; settings: two weeks of daily dosing
Source text: Preliminary data on TBB in the MCF-7 model have also been generated. […] Administration of TBB to MCF-7 tumor-bearing mice caused significant tumor regression that amounted to 32% over two weeks of daily dosing. TMI induced a 20% regression over a 25 day time course.

[6] = doses 0.5 to 20 μM, 6 and 24 hours, result at or up to 20 μM
[7] = direct comparison, human fibrosarcoma cells

| Compound | change in tumor size relative to day 0 (in words) (MCF-7 tumors [1]) | effect on tumor growth [2] | inhibition of gelatinase A (MMP-2) collagenolytic activity [3, 6] | inhibition of gelatinase B (MMP-9) collagenolytic activity [4, 6] | maximum extent of necrosis (MCF-7 tumors [5]; preliminary comparison of TMI and tamoxifen) [%] | onset of tumor necrosis (MCF-7 tumors [5]; sampling day after pellet exchange) [days] | tolerance of tumors to the drug and regrowth over time (MCF-7 tumors [1]; MCF-7 tumors in nude mice) | potency relative to TMI as inhibitor of 72 kDa (gelatinase A, MMP-2) collagenase [3, 7] | potency relative to TMI as inhibitor of 92 kDa (gelatinase B, MMP-9) collagenase [4, 7] | adverse effects (Tolerability in mice; doses as high as 10 mg/Kg given daily over a two week time course) | tolerability (Tolerability in mice; mice) | tumor regression (MCF-7 tumor) [%] |
| --- | --- | --- | --- | --- | --- | --- | --- | --- | --- | --- | --- | --- |
| C[C@]12CC[C@@H]3c4ccc(O)cc4CC[C@H]3[C@@H]1CC[C@@H]2O [estrogen, estradiol] | more than doubled in size | – | – | – | – | – | – | – | – | – | – | – |
| CC/C(=C(\c1ccccc1)c1ccc(OCCN(C)C)cc1)c1ccccc1 [tamoxifen, reference compound] | tumoristatic | merely slowed tumor growth | no significant inhibitory activity | no significant inhibitory activity | 50 | ≤ 3 | became tolerant to the effects of the drug and began to regrow over time | – | – | – | – | – |
| Tamoxifen benzyl bromide [TBB] | – | – | – | – | – | – | – | more potent than TMI | more potent than TMI | no adverse effects | well tolerated | 32 |
